The results in this text go back to patent publication US20260265190A1, “AROMATIC COMPOUNDS FOR USE AS PROTEIN PHOSPHATASE 2A (PP2A) MODULATORS” (RAPPTA THERAPEUTICS OY, priority 2022, published 2026).

One assay relates to LNCaP cells. The assay is described as follows: Cell viability assay (MTS), LNCaP cell line. In kind it is cell-based. The following applies: Homo sapiens, 48 hours. As for the experimental part:
LNCaP cell line was used for the cell viability assay. LNCaP cells were plated in 96-well plates at a density of 5000 cells per well. After 24 hours of plating, the cells were treated with increasing doses of compound (e.g., compounds 1-38) ranging from 1 μM to 80 μM. Relative cell numbers were analyzed after 48 hours using 3-(4,5-dimethylthiazol-2-yl)-5-(3-carboxymethoxyphenyl)-2-(4-sulfophenyl)-2H-tetrazolium (MTS) assay (Promega) according to the manufacturer's instructions.
(§1) The cell viability data was analyzed with GraphPad Prism software. The values were log transformed and analyzed with non-linear regression (curve-fit) using log (inhibitor) vs. response—variable slope (four parameters) and constraining the bottom to equal zero. Unless otherwise indicated, the GI50 values provided in Table 1 correspond to the LNCaP cell viability assays.

The subject of a further assay is HCC1937 cells. Put plainly: Cell viability assay (MTS), HCC1937 cell line. It counts as cell-based. The following applies: Homo sapiens, HCC1937 cell line (footnote a), 48 hours. As for the experimental part: HCC1937 cells are plated in a 96 well plate format at a density of 10,000 cells per well. After incubation overnight, cells are treated with a compound (e.g., compound 5) at the following concentrations: 80, 40, 20, 10, 5, 2.5, 1.25 μM. Compound concentrations are prepared in RPMI via serial dilutions from a starting stock of 80 mM. Forty-eight (48) hours after compound treatment, cell viability is assessed using the Promega CellTiter 96 aqueous one proliferation assay (Promega G3582, MTS assay) according to manufacturer's protocol.
as §1

Broadly, the GI50 is the concentration that inhibits growth by half. Higher therefore signals less potent growth inhibition. In the assay on LNCaP cells, `CN(C)CC(NC(=O)c1ccc(OC(F)(F)F)c([N+](=O)[O-])c1)c1ccc(Cl)c(Cl)c1` (centres unmarked) [Example 32, N-(1-(3,4-dichlorophenyl)-2-(dimethylamino)ethyl)-3-nitro-4-(trifluoromethoxy)benzamide] displayed a GI50 of 2.1 µM.

Regarding `O=S(=O)(N[C@@H](c1ccc(Cl)cc1)C1CCNCC1)c1ccc(OC(F)(F)F)cc1` [Example 13, (R)-N-((4-chlorophenyl)(piperidin-4-yl)methyl)-4-(trifluoromethoxy)benzenesulfonamide], the GI50 in the assay with LNCaP cells turned out to be 10 µM.

Compound `O=S(=O)(NC1(c2cc(F)cc(F)c2)CCNCC1)c1ccc(OC(F)(F)F)cc1` [Example 2, N-(4-(3,5-difluorophenyl)piperidin-4-yl)-4-(trifluoromethoxy)benzenesulfonamide] registered a GI50 in the assay with LNCaP cells of 15.5 µM.

Take `O=S(=O)(N[C@H](CN1CC(N2CCC2)C1)c1ccc(F)cc1)c1ccc(OC(F)(F)F)cc1` [Example 27, (S)-N-(2-([1,3′-biazetidin]-1′-yl)-1-(4-fluorophenyl)ethyl)-4-(trifluoromethoxy)benzenesulfonamide]: in the assay with LNCaP cells, the GI50 was determined as 24.4 µM.

The compound `CN(C)CC(c1ccc(Cl)c(Cl)c1)n1cc(-c2ccc(OC(F)(F)F)cc2)cn1` (centres unmarked) [Example 34, 2-(3,4-dichlorophenyl)-N,N-dimethyl-2-(4-(4-(trifluoromethoxy)phenyl)-1H-pyrazol-1-yl)ethan-1-amine] displayed a GI50 in the assay on LNCaP cells of 54.6 µM.

Turning to `CC(C)Oc1ccc(S(=O)(=O)N[C@H](c2ccccc2)C2CCNCC2)cn1` [Example 19, (S)-6-isopropoxy-N-(phenyl(piperidin-4-yl)methyl)pyridine-3-sulfonamide], the GI50 in the assay with HCC1937 cells stood at 74.5 µM.

Consider `CC(C)Oc1ccc(S(=O)(=O)N[C@@H](c2ccc(Cl)cc2)C2CCNCC2)cn1` [Example 16, (R)-N-((4-chlorophenyl)(piperidin-4-yl)methyl)-6-isopropoxypyridine-3-sulfonamide], for which the GI50 with LNCaP cells was 23.4 µM.

Turning to `O=S(=O)(N[C@H](c1ccccc1)C1CCNCC1)c1ccc(OC(F)(F)F)cc1` [Example 12, (S)-N-(phenyl(piperidin-4-yl)methyl)-4-(trifluoromethoxy)benzenesulfonamide], the GI50 with LNCaP cells came to 27.1 µM.

With `O=C(NC1(c2ccc(Cl)cc2)CCNC1)c1ccc(OC(F)(F)F)cc1` (centres unmarked) [Example 33, N-(3-(4-chlorophenyl)pyrrolidin-3-yl)-4-(trifluoromethoxy)benzamide], in the assay on LNCaP cells, the concentration for 50% growth inhibition (GI50) is 23.3 µM.

In the assay on LNCaP cells, `CC(C)Oc1ccc(S(=O)(=O)NCC2(c3ccccc3)CC2(C)C)cn1` (centres unmarked) [Example 29, N-((2,2-dimethyl-1-phenylcyclopropyl)methyl)-6-isopropoxypyridine-3-sulfonamide] returned a GI50 of 78.7 µM.

Turning to `Cc1cc(C2(NS(=O)(=O)c3ccc(OC(F)(F)F)cc3)CCNCC2)ccc1Cl` [Example 4, N-(4-(4-chloro-3-methylphenyl)piperidin-4-yl)-4-(trifluoromethoxy)benzenesulfonamide], the GI50 in the assay on LNCaP cells came to 6.76 µM.

As for `CN(C)CC(c1ccc(Cl)c(Cl)c1)n1cnc(-c2ccc(OC(F)(F)F)cc2)c1` (centres unmarked) [Example 35, 2-(3,4-dichlorophenyl)-N,N-dimethyl-2-(4-(4-(trifluoromethoxy)phenyl)-1H-imidazol-1-yl)ethan-1-amine], the GI50 with LNCaP cells was found to be 20.4 µM.

Compound `O=S(=O)(NC1(c2ccc(F)c(F)c2)CCNC1)c1ccc(OC(F)(F)F)cc1` (centres unmarked) [Example 1, N-(3-(3,4-difluorophenyl)pyrrolidin-3-yl)-4-(trifluoromethoxy)benzenesulfonamide] yielded a GI50 in the assay with LNCaP cells of 25.7 µM.

As for `CC(C)Oc1ccc(S(=O)(=O)NC2(c3ccc(F)c(F)c3)CCNCC2)cn1` [Example 7, N-(4-(3,4-difluorophenyl)piperidin-4-yl)-6-isopropoxypyridine-3-sulfonamide], in the assay on LNCaP cells, the GI50 was determined as 36.8 µM.

Regarding `FC(F)(F)Oc1ccc(-c2cn(C3(c4ccc(Cl)cc4)CCNC3)cn2)cc1` (centres unmarked) [Example 36, 1-(3-(4-chlorophenyl)pyrrolidin-3-yl)-4-(4-(trifluoromethoxy)phenyl)-1H-imidazole], growth with LNCaP cells was halved (GI50) at 25.2 µM.

On to `CC(C)Oc1ccc(S(=O)(=O)NC(CN2CCNCC2)c2ccc(Cl)cc2)cn1` (centres unmarked) [Example 22, N-(1-(4-chlorophenyl)-2-(piperazin-1-yl)ethyl)-6-isopropoxypyridine-3-sulfonamide], for which, in the assay with LNCaP cells, the GI50 amounted to 51.1 µM.

Turning to `CC(C)Oc1ccc(S(=O)(=O)NC(c2cc(Cl)cc(Cl)c2)C2CCCCC2)cn1` (centres unmarked) [Example 30, N-(cyclohexyl(3,5-dichlorophenyl)methyl)-6-isopropoxypyridine-3-sulfonamide], the GI50 with LNCaP cells worked out at 22.8 µM.

In the assay with LNCaP cells, `O=S(=O)(N[C@H](CN1CCC[C@H](F)C1)c1ccc(F)cc1)c1ccc(OC(F)(F)F)cc1` [Example 26, N-((S)-1-(4-fluorophenyl)-2-((S)-3-fluoropiperidin-1-yl)ethyl)-4-(trifluoromethoxy)benzenesulfonamide] showed a GI50 of 47.5 µM.

For the compound `O=S(=O)(NC1(c2cc(Cl)ncc2Cl)CCNCC1)c1ccc(OC(F)(F)F)cc1` [Example 9, N-(4-(2,5-dichloropyridin-4-yl)piperidin-4-yl)-4-(trifluoromethoxy)benzenesulfonamide], in the assay on LNCaP cells, the GI50 worked out at 28.8 µM.

As for `O=S(=O)(NC(CN1CCNCC1)c1ccc(F)cc1F)c1ccc(OC(F)(F)F)cc1` (centres unmarked) [Example 20, N-(1-(2,4-difluorophenyl)-2-(piperazin-1-yl)ethyl)-4-(trifluoromethoxy)benzenesulfonamide], the GI50 in the assay on LNCaP cells turned out to be 27.1 µM.

As for `FC(F)(F)Oc1ccc(-c2cnn(C3(c4ccccc4)CCNC3)c2)cc1` (centres unmarked) [Example 37, 1-(3-phenylpyrrolidin-3-yl)-4-(4-(trifluoromethoxy)phenyl)-1H-pyrazole], halving of growth with LNCaP cells (GI50) required 30.5 µM.

In the assay with HCC1937 cells, `O=S(=O)(N[C@H](c1ccc(Cl)cn1)C1CCNCC1)c1ccc(OC(F)(F)F)cc1` [Example 15, (S)-N-((5-chloropyridin-2-yl)(piperidin-4-yl)methyl)-4-(trifluoromethoxy)benzenesulfonamide] came in with a GI50 of 48.7 µM.

As for `CN(C)CC(NS(=O)(=O)c1ccc(Oc2cccc(C(F)(F)F)c2)cc1)c1ccc(Cl)c(Cl)c1` (centres unmarked) [Example 28, N-(1-(3,4-dichlorophenyl)-2-(dimethylamino)ethyl)-4-(3-(trifluoromethyl)phenoxy)benzenesulfonamide], in the assay on LNCaP cells, the GI50 came out at 14.4 µM.

`O=S(=O)(N[C@@H](CN1CCNCC1)c1ccc(Cl)cc1)c1ccccc1` [Example 25, (R)-N-(1-(4-chlorophenyl)-2-(piperazin-1-yl)ethyl)benzenesulfonamide]: it took 40.6 µM to inhibit growth in the assay with HCC1937 cells by half (GI50).

As to `CNc1cc(S(=O)(=O)NC2(c3ccc(Cl)cc3)CCNCC2)ccc1OC(F)(F)F` [Example 8, N-(4-(4-chlorophenyl)piperidin-4-yl)-3-(methylamino)-4-(trifluoromethoxy)benzenesulfonamide], the GI50 with LNCaP cells worked out at 25.2 µM.

With `Nc1cc(S(=O)(=O)NC(CN2CCNCC2)c2ccc(Cl)cc2)ccc1OC(F)(F)F` (centres unmarked) [Example 23, 3-amino-N-(1-(4-chlorophenyl)-2-(piperazin-1-yl)ethyl)-4-(trifluoromethoxy)benzenesulfonamide], the GI50 in the assay on LNCaP cells stood at 30.8 µM.

In the case of `CN(C)CC(NC(=O)c1ccc(OC(F)(F)F)cc1)c1ccc(Cl)c(Cl)c1` (centres unmarked) [Example 31, N-(1-(3,4-dichlorophenyl)-2-(dimethylamino)ethyl)-4-(trifluoromethoxy)benzamide], halving of growth in the assay on LNCaP cells (GI50) required 41.9 µM.

With `O=S(=O)(NC(CN1CCNCC1)c1ccc(F)c(F)c1)c1ccc(OC(F)(F)F)cc1` (centres unmarked) [Example 21, N-(1-(3,4-difluorophenyl)-2-(piperazin-1-yl)ethyl)-4-(trifluoromethoxy)benzenesulfonamide], growth with LNCaP cells was halved (GI50) at 33.8 µM.

In turn, `O=S(=O)(N[C@@H](c1ccccc1)C1CCNCC1)c1ccc(OC(F)(F)F)cc1` [Example 11, (R)-N-(phenyl(piperidin-4-yl)methyl)-4-(trifluoromethoxy)benzenesulfonamide] yielded a GI50 with LNCaP cells of 24.7 µM.

Consider `O=S(=O)(NC1(c2ccc(Cl)nc2)CCNCC1)c1ccc(OC(F)(F)F)cc1` [Example 3, N-(4-(6-chloropyridin-3-yl)piperidin-4-yl)-4-(trifluoromethoxy)benzenesulfonamide], for which the GI50 in the assay on LNCaP cells worked out at 69.9 µM.

In turn, `O=S(=O)(NC(c1ccccc1)C1CCNCC1)c1ccc(OC(F)(F)F)cc1` (centres unmarked) [Example 10, N-(phenyl(piperidin-4-yl)methyl)-4-(trifluoromethoxy)benzenesulfonamide] yielded a GI50 in the assay with LNCaP cells of 20.5 µM.

As for `O=S(=O)(N[C@H](c1ccc(Cl)cc1)C1CCNCC1)c1ccc(OC(F)(F)F)cc1` [Example 14, (S)-N-((4-chlorophenyl)(piperidin-4-yl)methyl)-4-(trifluoromethoxy)benzenesulfonamide], in the assay on LNCaP cells, it took 11.3 µM to inhibit growth by half (GI50).

As for `O=S(=O)(NC1(c2ccccc2)CCC2(CC2)NC1)c1ccc(OC(F)(F)F)cc1` (centres unmarked) [Example 6, N-(6-phenyl-4-azaspiro[2.5]octan-6-yl)-4-(trifluoromethoxy)benzenesulfonamide], the GI50 in the assay on LNCaP cells worked out at 57.5 µM.

In the assay on LNCaP cells, `O=S(=O)(Nc1ccc(OC(F)(F)F)cc1)C1(c2ccccc2)CCNCC1` [Example 38, 4-phenyl-N-(4-(trifluoromethoxy)phenyl)piperidine-4-sulfonamide] had a GI50 of 23 µM.

In the case of `CC(C)Oc1ccc(S(=O)(=O)N[C@H](c2ccc(Cl)cc2)C2CCNCC2)cn1` [Example 17, (S)-N-((4-chlorophenyl)(piperidin-4-yl)methyl)-6-isopropoxypyridine-3-sulfonamide], in the assay with LNCaP cells, halving of growth (GI50) required 26.4 µM.
